The source of these data is patent US7544701B2, “Sulfonyldihydrobenzimidazolone compounds as 5-hydroxytryptamine-6 ligands” (Wyeth, priority 2003, dated 2009).

SMILES strings stand for the structures. pKi: −log10 of the molar value.

The target of the assay is T1, human cloned 5-HT6 receptors (Homo sapiens, UniProt P50406).
T1 construct: expressed in transfected cells; host or cells: Hela cells
T1 sequence (P50406 whole entry): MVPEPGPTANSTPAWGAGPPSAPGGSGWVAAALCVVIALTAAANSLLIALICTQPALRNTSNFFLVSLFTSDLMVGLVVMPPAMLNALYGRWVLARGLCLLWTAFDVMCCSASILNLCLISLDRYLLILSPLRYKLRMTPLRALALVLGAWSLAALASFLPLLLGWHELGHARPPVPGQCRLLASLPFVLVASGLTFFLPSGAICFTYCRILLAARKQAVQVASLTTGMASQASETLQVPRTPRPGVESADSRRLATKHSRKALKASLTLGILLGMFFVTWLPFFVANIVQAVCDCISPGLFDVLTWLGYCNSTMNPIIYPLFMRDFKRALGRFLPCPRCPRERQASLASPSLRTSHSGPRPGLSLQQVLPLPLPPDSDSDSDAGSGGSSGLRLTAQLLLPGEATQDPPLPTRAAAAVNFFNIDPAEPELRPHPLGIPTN
In words: 5-HT6 binding affinity ([3H]-LSD displacement, membranes of Hela cells expressing human cloned 5-HT6 receptors). The note with it: [3H]-LSD 3.0 nM, 120 min, room temperature, Hela cell membranes. Here is the method: The affinity of test compounds for the serotonin 5-HT6 receptor is evaluated in the following manner. Cultured Hela cells expressing human cloned 5-HT6 receptors are harvested and centrifuged at low speed (1,000×g) for 10.0 min to remove the culture media. The harvested cells are suspended in half volume of fresh physiological phosphate buffered saline solution and recentrifuged at the same speed. This operation is repeated. The collected cells are then homogenized in ten volumes of 50 mM Tris.HCl (pH 7.4) and 0.5 mM EDTA. The homogenate is centrifuged at 40,000×g for 30.0 min and the precipitate is collected. The obtained pellet is resuspended in 10 volumes of Tris.HCl buffer and recentrifuged at the same speed. The final pellet is suspended in a small volume of Tris.HCl buffer and the tissue protein content is determined in aliquots of 10-25 μl volumes. Bovine Serum Albumin is used as the standard in the protein determination according to the method described in Lowry et al., J. Biol. Chem., 193:265 (1951). The volume of the suspended cell membranes is adjusted to give a tissue protein concentration of 1.0 mg/ml of suspension. The prepared membrane suspension (10 times concentrated) is aliquoted in 1.0 ml volumes and stored at −70° C. until used in subsequent binding experiments.
Binding experiments are performed in a 96 well microtiter plate format, in a total volume of 200 μl. […] The test compounds are added in 20.0 μl volume.
The reaction is allowed to proceed in the dark for 120 min at room temperature, at which time, the bound ligand-receptor complex is filtered off on a 96 well unifilter with a Packard Filtermate® 196 Harvester. The bound complex caught on the filter disk is allowed to air dry and the radioactivity is measured in a Packard TopCount® equipped with six photomultiplier detectors, after the addition of 40.0 μl Microscint®-20 scintillant to each shallow well. The unifilter plate is heat-sealed and counted in a PackardTopCount® with a tritium efficiency of 31.0%.
Binding in the presence of varying concentrations of test compound is expressed as a percentage of specific binding in the absence of test compound. The results are plotted as log % bound versus log concentration of test compound. […] A linear regression line of data points is plotted, from which the IC50 value is determined and the Ki value is determined based upon the following equation: Ki=IC50/(1+L/KD) where L is the concentration of the radioactive ligand used and KD is the dissociation constant of the ligand for the receptor, both expressed in nM.
One may read the pKi as the Ki on a negative log10 scale, so that one unit is a factor of ten. Higher therefore signals a small Ki. For the compound `NCCn1c(=O)n(S(=O)(=O)c2ccc(Cl)s2)c2ccccc21` [Example 17, 1-(2-Aminoethyl)-3-[(5-chlorothien-2-yl)sulfonyl]-1,3-dihydro-2H-benzimidazol-2-one], the pKi is 7.59.
In turn, `O=c1n(C2=CCNCC2)c2ccccc2n1S(=O)(=O)c1sc(Cl)cc1Br` [Example 45, 1-[(3-bromo-5-chlorothien-2-yl)sulfonyl]-3-(1,2,3,6-tetrahydropyridin-4-yl)-1,3-dihydro-2H-benzimidazol-2-one] had a negative logarithm of the Ki (pKi) of 8.00.
Turning to `Cc1nc(S(=O)(=O)n2c(=O)n(C3=CCNCC3)c3ccccc32)cn1C` [Example 52, 1-[(1,2-dimethyl-1H-imidazol-4-yl)sulfonyl]-3-(1,2,3,6-tetrahydropyridin-4-yl)-1,3-dihydro-2H-benzimidazol-2-one], the negative logarithm of the Ki (pKi) was 6.88.
Compound `Cc1c(S(=O)(=O)n2c(=O)n(C3CCNCC3)c3ccccc32)sc2ccc(Cl)cc12` [Example 31, 1-[(5-chloro-3-methyl-1-benzothien-2-yl)sulfonyl]-3-piperidin-4-yl-1,3-dihydro-2H-benzimidazol-2-one] gave a pKi of 7.10.
Take `O=c1n(C2CCNCC2)c2ccccc2n1S(=O)(=O)c1ccc(Br)s1` [Example 24, 1-[(5-bromothien-2-yl)sulfonyl]-3-piperidin-4-yl-1,3-dihydro-2H-benzimidazol-2-one]: the pKi is 8.30. Against the preceding compound, the pKi is 1.20 log units higher.
Regarding `CN(C)CCn1c(=O)n(S(=O)(=O)c2ccc(Cl)s2)c2ccccc21` [Example 4, 1-[(5-Chlorothien-2-yl)sulfonyl]-3-[2-(dimethylamino)ethyl]-1,3-dihydro-2H-benzimidazol-2-one], the pKi is 7.37.
